Source: patent US9328085B2, “Heterocyclic compounds and expansion agents for hematopoietic stem cells” (NISSAN CHEMICAL INDUSTRIES, LTD., priority 2009, dated 2016)

Experiments:
[1] = system: CD34^+CD38^− cells; assay: Expansion of CD34+CD38- cells using human cord blood-derived CD34+ cells (Assay Example 1); format: cell-based; details: for Expansion efficiency (CD34^+CD38^− cells): 100 ng/mL SCF, 7 days, based on the number of CD34^+CD38^− cells in the absence of compound; for Comparison with TPO: CD34^+CD38^− cells
Method: (§1) Human cord blood-derived CD34^+ cells were purchased from Lonza and plated on a 24-well plate (Corning) (10000 cells/1 mL/well). As the culture medium, StemSpan SFEM (StemCell Technologies) containing 100 ng/mL SCF (Wako Pure Chemical Industries) was used, and one of Compounds No. 1 to 72 dissolved in dimethyl sulfoxide was added in an amount of 0.1% (v/v) to a final concentration of 1 or 3 μg/mL. As a positive control, TPO (PeproTech) was used at a final concentration of 10 ng/mL.
(§2) After the cells were incubated in liquid culture at 37° C. for 7 days in a CO2 incubator (5% CO2), the number of viable cells was counted by trypan blue assay. The number of CD34^+CD38^− cells was calculated as follows. After the incubation, the cells in the liquid culture was stained with a CD34 antibody (APC, Becton, Dickinson and Company) and a CD38 antibody (PE, Becton, Dickinson and Company), then washed with PBS(−) containing 2% (v/v) FBS and stained with propidium iodide (Sigma-Aldrich Japan) added to a final concentration of 5 μg/mL. The stained cells were analyzed with a BD FACSCANTO™ II flow cytometer (Becton, Dickinson and Company) to determined the proportions of CD34^+ cells and CD34^+CD38^− cells, which was multiplied by the number of viable cells to calculate the numbers of CD34^+ cells and CD34^+CD38^− cells.
(§3) The expansion efficiencies in the presence of 1 or 3 μg/mL of compounds based on the number of CD34^+ cells in the absence of them are shown in Tables 3-1 and 3-2 on a scale of A for expansion efficiencies of 6 or greater, B for expansion efficiencies of at least 4 and less than 6, and C for expansion efficiencies of at least 2 and less than 4. The expansion efficiencies in the presence of 1 or 3 μg/mL of compounds based on the number of CD34^+CD38^− cells in the absence of them are shown in Tables 4-1 and 4-2 on a scale of A for expansion efficiencies of 10 or greater, B for expansion efficiencies of at least 5 and less than 10, and C for expansion efficiencies of at least 3 and less than 5. Further, in Table 3, the compounds with an expansion efficiency twice or more greater than that of TPO are marked with O.

[2] = system: CD34^+ cells; assay: Expansion of CD34+ cells using human cord blood-derived CD34+ cells (Assay Example 1); format: cell-based; details: 100 ng/mL SCF, 7 days, based on the number of CD34^+ cells in the absence of compound
Method: as §1, §2, §3

[3] = 3 μg/mL compound vs TPO 10 ng/mL
[4] = 1 μg/mL compound vs TPO 10 ng/mL

Compound	Expansion efficiency (CD34^+CD38^− cells) ([1]; 3 μg/mL compound)	Expansion efficiency (CD34^+ cells) ([2]; 3 μg/mL compound)	Comparison with TPO [1, 3]	Expansion efficiency (CD34^+CD38^− cells) ([1]; 1 μg/mL compound)	Expansion efficiency (CD34^+ cells) ([2]; 1 μg/mL compound)	Comparison with TPO [1, 4]
COCCOCCNC(=O)c1ccc(CNC(=O)c2ccc(C(=O)NN=C(C)c3csc(-c4ccc(Cl)c(Cl)c4)c3O)s2)cc1 [compound 31]	A (A for expansion efficiencies of 10 or greater)	C (C for expansion efficiencies of at least 2 and less than 4)	–	–	–	–
COCCOCCNC(=O)c1ccc(CNC(=O)c2ccc(C(=O)NN=C(C)c3csc(-c4ccc(C(C)(C)C)cc4)c3O)s2)cc1 [compound 32]	A (A for expansion efficiencies of 10 or greater)	A (A for expansion efficiencies of 6 or greater)	∘	–	–	–
COCCOCCNC(=O)c1ccc(CNC(=O)c2ccc(C(=O)NN=C(C)c3csc(-c4ccc(Br)cc4)c3O)s2)cc1 [compound 33]	A (A for expansion efficiencies of 10 or greater)	A (A for expansion efficiencies of 6 or greater)	∘	–	–	–
CCCCOCCOCCNC(=O)c1ccc(CNC(=O)c2ccc(C(=O)NN=C(C)c3csc(-c4ccc(Cl)c(Cl)c4)c3O)s2)cc1 [compound 34]	B (B for expansion efficiencies of at least 5 and less than 10)	C (C for expansion efficiencies of at least 2 and less than 4)	–	–	–	–
CCCCOCCOCCNC(=O)c1ccc(CNC(=O)c2ccc(C(=O)NN=C(C)c3csc(-c4ccc(C(C)(C)C)cc4)c3O)s2)cc1 [compound 35]	B (B for expansion efficiencies of at least 5 and less than 10)	C (C for expansion efficiencies of at least 2 and less than 4)	–	–	–	–
CCCCOCCOCCNC(=O)c1ccc(CNC(=O)c2ccc(C(=O)NN=C(C)c3csc(-c4ccc(Br)cc4)c3O)s2)cc1 [compound 36]	B (B for expansion efficiencies of at least 5 and less than 10)	C (C for expansion efficiencies of at least 2 and less than 4)	–	–	–	–
CCCCCCOCCOCCNC(=O)c1ccc(CNC(=O)c2ccc(C(=O)NN=C(C)c3csc(-c4ccc(Cl)c(Cl)c4)c3O)s2)cc1 [compound 37]	A (A for expansion efficiencies of 10 or greater)	C (C for expansion efficiencies of at least 2 and less than 4)	–	–	–	–
CCCCCCOCCOCCNC(=O)c1ccc(CNC(=O)c2ccc(C(=O)NN=C(C)c3csc(-c4ccc(C(C)(C)C)cc4)c3O)s2)cc1 [compound 38]	A (A for expansion efficiencies of 10 or greater)	C (C for expansion efficiencies of at least 2 and less than 4)	–	–	–	–
CC(=NNC(=O)c1ccc(C(=O)NCc2ccc(C(=O)NCCOCCO)cc2)cc1)c1csc(-c2ccc(C(C)(C)C)cc2)c1O [compound 44]	A (A for expansion efficiencies of 10 or greater)	C (C for expansion efficiencies of at least 2 and less than 4)	–	–	–	–
CC(=O)NCc1ccc(CNC(=O)c2ccc(C(=O)NN=C(C)c3csc(-c4ccc(Cl)c(Cl)c4)c3O)s2)cc1 [compound 52]	–	–	–	A (A for expansion efficiencies of 10 or greater)	A (A for expansion efficiencies of 6 or greater)	–
CC(=O)NCc1ccc(CNC(=O)c2ccc(C(=O)NN=C(C)c3csc(-c4ccc(C(C)(C)C)cc4)c3O)s2)cc1 [compound 53]	–	–	–	B (B for expansion efficiencies of at least 5 and less than 10)	C (C for expansion efficiencies of at least 2 and less than 4)	–
CC(=O)NCc1ccc(CNC(=O)c2ccc(C(=O)NN=C(C)c3csc(-c4ccc(Br)cc4)c3O)s2)cc1 [compound 54]	–	–	–	A (A for expansion efficiencies of 10 or greater)	A (A for expansion efficiencies of 6 or greater)	–
CC(=O)NCc1ccc(CNC(=O)c2ccc(C(=O)NN=C(C)c3csc(-c4ccc(C(F)(F)F)cc4)c3O)s2)cc1 [compound 55]	–	–	–	A (A for expansion efficiencies of 10 or greater)	A (A for expansion efficiencies of 6 or greater)	–
CC(=O)NCc1ccc(CNC(=O)c2ccc(C(=O)NN=C(C)c3csc(-c4ccc(Cl)cc4)c3O)s2)cc1 [compound 56]	–	–	–	A (A for expansion efficiencies of 10 or greater)	A (A for expansion efficiencies of 6 or greater)	–
CC(=O)NCc1ccc(CNC(=O)c2ccc(C(=O)NN=C(C)c3csc(-c4ccc(OC(F)(F)F)cc4)c3O)s2)cc1 [compound 57]	A (A for expansion efficiencies of 10 or greater)	B (B for expansion efficiencies of at least 4 and less than 6)	–	–	–	–
COc1ccc(-c2scc(C(C)=NNC(=O)c3ccc(C(=O)NCc4ccc(CNC(C)=O)cc4)s3)c2O)cc1 [compound 58]	–	–	–	A (A for expansion efficiencies of 10 or greater)	B (B for expansion efficiencies of at least 4 and less than 6)	–
CC(=NNC(=O)c1ccc(C(=O)NCc2ccc(C(=O)NCCOCCO)cc2)s1)c1csc(-c2ccc(Cl)c(Cl)c2)c1O [compound 59]	A (A for expansion efficiencies of 10 or greater)	B (B for expansion efficiencies of at least 4 and less than 6)	∘	–	–	–
CC(=NNC(=O)c1ccc(C(=O)NCc2ccc(C(=O)NCCOCCO)cc2)s1)c1csc(-c2ccc(C(F)(F)F)cc2)c1O [compound 62]	A (A for expansion efficiencies of 10 or greater)	A (A for expansion efficiencies of 6 or greater)	∘	–	–	–
CC(=NNC(=O)c1ccc(C(=O)NCc2ccc(C(=O)NCCOCCO)cc2)s1)c1csc(-c2ccc(Cl)cc2)c1O [compound 63]	A (A for expansion efficiencies of 10 or greater)	A (A for expansion efficiencies of 6 or greater)	∘	–	–	–
CC(=NNC(=O)c1ccc(C(=O)NCc2ccc(C(=O)NCCOCCO)cc2)s1)c1csc(-c2ccc(OC(F)(F)F)cc2)c1O [compound 64]	–	–	–	A (A for expansion efficiencies of 10 or greater)	A (A for expansion efficiencies of 6 or greater)	∘
COc1ccc(-c2scc(C(C)=NNC(=O)c3ccc(C(=O)NCc4ccc(C(=O)NCCOCCO)cc4)s3)c2O)cc1 [compound 65]	B (B for expansion efficiencies of at least 5 and less than 10)	C (C for expansion efficiencies of at least 2 and less than 4)	–	–	–	–
CC(=NNC(=O)c1ccc(C(=O)NCc2ccc(CC(N)=O)cc2)s1)c1csc(-c2ccc(Cl)c(Cl)c2)c1O [compound 66]	A (A for expansion efficiencies of 10 or greater)	C (C for expansion efficiencies of at least 2 and less than 4)	–	–	–	–
CC(=NNC(=O)c1ccc(C(=O)NCc2ccc(CC(N)=O)cc2)s1)c1csc(-c2ccc(C(C)(C)C)cc2)c1O [compound 67]	–	–	–	A (A for expansion efficiencies of 10 or greater)	B (B for expansion efficiencies of at least 4 and less than 6)	∘
CC(=NNC(=O)c1ccc(C(=O)NCc2ccc(CC(N)=O)cc2)s1)c1csc(-c2ccc(Br)cc2)c1O [compound 68]	A (A for expansion efficiencies of 10 or greater)	A (A for expansion efficiencies of 6 or greater)	∘	–	–	–
CC(=NNC(=O)c1ccc(C(=O)NCc2ccc(CC(N)=O)cc2)s1)c1csc(-c2ccc(C(F)(F)F)cc2)c1O [compound 69]	A (A for expansion efficiencies of 10 or greater)	A (A for expansion efficiencies of 6 or greater)	–	–	–	–
CC(=NNC(=O)c1ccc(C(=O)NCc2ccc(CC(N)=O)cc2)s1)c1csc(-c2ccc(Cl)cc2)c1O [compound 70]	A (A for expansion efficiencies of 10 or greater)	A (A for expansion efficiencies of 6 or greater)	∘	–	–	–
